{
  "source": "ChEMBL document CHEMBL1149984",
  "about": "“Hygromycin A: preparation of aminocyclitol analogs defining the minimum functionality required for biological activity” (1992)",
  "key": {"[1]": {"test_system": "Pasteurella multocida", "assay": "Minimum inhibitory concentration against Pasteurella multocida was determined", "format": "functional"}, "[2]": {"test_system": "Brachyspira hyodysenteriae", "assay": "Minimum inhibitory concentration against Serpulina hyodysenteriae was determined", "format": "functional"}, "[3]": {"details": "Pasteurella multocida, read-out: MIC"}, "[4]": {"details": "Brachyspira hyodysenteriae, read-out: MIC"}},
  "data": [
    {"smiles": "C=CCOc1ccc(/C=C(\\C)C(=O)N[C@@H]2[C@H](O)[C@@H](O)CC[C@@H]2O)cc1O", "values": [
      {"measurement": "MIC", "setting": "[1]", "value": ">200", "unit": "µg/mL"},
      {"measurement": "MIC", "setting": "[2]", "value": 100, "unit": "µg/mL"}
    ]},
    {"smiles": "C=CCOc1ccc(/C=C(\\C)C(=O)N[C@@H]2[C@H](O)[C@@H](O)[C@H]3OCO[C@H]3[C@@H]2O)cc1O", "values": [
      {"measurement": "MIC", "setting": "[1]; [3]", "value": 1.56, "unit": "µg/mL"},
      {"measurement": "MIC", "setting": "[2]; [4]", "value": 0.78, "unit": "µg/mL"}
    ]},
    {"smiles": "C=CCOc1ccc(/C=C(\\C)C(=O)N[C@@H]2[C@H](O)[C@@H](O)CC[C@@H]2O)cc1O", "note": "(racemic)", "values": [
      {"measurement": "MIC", "setting": "[1]", "value": 25, "unit": "µg/mL"},
      {"measurement": "MIC", "setting": "[2]", "value": 6.25, "unit": "µg/mL"}
    ]},
    {"smiles": "CC(=O)[C@H]1O[C@@H](Oc2ccc(/C=C(\\C)C(=O)N[C@@H]3[C@H](O)[C@@H](O)[C@H]4OCO[C@H]4[C@@H]3O)cc2O)[C@@H](O)[C@@H]1O", "note": "[HYGROMYCIN A]", "values": [
      {"measurement": "MIC", "setting": "[1]; [3]", "value": 1.56, "unit": "µg/mL"},
      {"measurement": "MIC", "setting": "[2]; [4]", "value": 1.56, "unit": "µg/mL"}
    ]},
    {"smiles": "C/C(=C\\c1ccc(O[C@@H]2O[C@H]([C@H](C)O)[C@@H](O)[C@@H]2O)c(O)c1)C(=O)N[C@@H]1CCCC[C@@H]1O", "values": [
      {"measurement": "MIC", "setting": "[1]; [3]", "value": "> 200", "unit": "µg/mL"},
      {"measurement": "MIC", "setting": "[2]; [4]", "value": "> 200", "unit": "µg/mL"}
    ]},
    {"smiles": "C=CCOc1ccc(/C=C(\\C)C(=O)N[C@@H]2[C@H](O)CCC[C@@H]2O)cc1O", "values": [
      {"measurement": "MIC", "setting": "[1]; [3]", "value": 100, "unit": "µg/mL"},
      {"measurement": "MIC", "setting": "[2]; [4]", "value": 12.5, "unit": "µg/mL"}
    ]}
  ]
}
